Values belong to the molecule of their own block, whether it stands above or below them.
What was measured:
Aurora kinase B = Aurora kinase B (Homo sapiens, UniProt Q96GD4); assay: Inhibition of human aurora B
Aurora kinase C = target: T1, Aurora kinase C (Homo sapiens, UniProt Q9UQB9); assay: Inhibition of human aurora C
T1 sequence (Q9UQB9 whole entry): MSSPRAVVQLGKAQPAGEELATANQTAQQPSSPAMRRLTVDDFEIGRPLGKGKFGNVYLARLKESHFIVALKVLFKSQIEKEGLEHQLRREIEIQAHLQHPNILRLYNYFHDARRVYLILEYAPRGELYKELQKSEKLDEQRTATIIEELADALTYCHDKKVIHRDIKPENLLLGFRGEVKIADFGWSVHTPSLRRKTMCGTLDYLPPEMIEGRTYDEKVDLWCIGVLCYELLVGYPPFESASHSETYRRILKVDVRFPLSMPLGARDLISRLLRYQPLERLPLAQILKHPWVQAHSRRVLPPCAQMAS

[1] = target: T2, Receptor-type tyrosine-protein kinase FLT3 (Homo sapiens, UniProt P36888); assay: Inhibition of human FLT3
T2 sequence (P36888 whole entry): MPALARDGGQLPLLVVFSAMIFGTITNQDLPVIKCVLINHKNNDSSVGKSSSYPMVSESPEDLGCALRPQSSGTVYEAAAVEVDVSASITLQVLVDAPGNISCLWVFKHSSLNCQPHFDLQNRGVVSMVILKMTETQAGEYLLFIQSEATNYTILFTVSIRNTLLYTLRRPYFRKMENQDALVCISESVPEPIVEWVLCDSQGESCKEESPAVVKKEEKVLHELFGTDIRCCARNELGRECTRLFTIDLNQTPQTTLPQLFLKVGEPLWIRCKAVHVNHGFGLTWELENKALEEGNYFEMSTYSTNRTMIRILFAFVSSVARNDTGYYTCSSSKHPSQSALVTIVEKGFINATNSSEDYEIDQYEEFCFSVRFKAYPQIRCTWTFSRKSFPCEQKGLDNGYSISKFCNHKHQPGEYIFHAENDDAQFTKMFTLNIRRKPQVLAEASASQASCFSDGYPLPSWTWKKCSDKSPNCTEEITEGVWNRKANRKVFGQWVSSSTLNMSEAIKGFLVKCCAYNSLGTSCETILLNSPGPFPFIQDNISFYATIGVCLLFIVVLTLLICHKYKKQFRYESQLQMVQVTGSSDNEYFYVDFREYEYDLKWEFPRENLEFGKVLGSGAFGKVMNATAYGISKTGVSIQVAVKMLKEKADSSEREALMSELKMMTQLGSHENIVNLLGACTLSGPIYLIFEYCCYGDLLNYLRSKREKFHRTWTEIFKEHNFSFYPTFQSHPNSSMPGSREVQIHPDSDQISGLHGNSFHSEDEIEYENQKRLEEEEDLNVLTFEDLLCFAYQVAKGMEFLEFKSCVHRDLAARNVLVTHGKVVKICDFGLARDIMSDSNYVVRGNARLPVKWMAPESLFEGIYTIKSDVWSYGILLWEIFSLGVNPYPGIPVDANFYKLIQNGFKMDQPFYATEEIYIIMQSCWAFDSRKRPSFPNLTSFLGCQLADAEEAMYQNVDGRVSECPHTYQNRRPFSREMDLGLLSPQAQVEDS

[2] = Half life in human patient with advanced solid tumors at 0.5 to 12 mg/m2/hr, iv administered by continuous intravenous infusion over 5 days every 4 weeks; assay type: ADME, organism-based; details: in vivo, dose 0.5-12 mg/m2/hr, time 5 day
[3] = Cmax in plasma of human patient with advanced solid tumors at 0.5 to 12 mg/m2/hr, iv administered by continuous intravenous infusion over 5 days every 4 weeks; assay type: ADME, organism-based; details: dose 0.5-12 mg/m2/hr, time 5 day

Aurora kinase B, sequence (Q96GD4 whole entry): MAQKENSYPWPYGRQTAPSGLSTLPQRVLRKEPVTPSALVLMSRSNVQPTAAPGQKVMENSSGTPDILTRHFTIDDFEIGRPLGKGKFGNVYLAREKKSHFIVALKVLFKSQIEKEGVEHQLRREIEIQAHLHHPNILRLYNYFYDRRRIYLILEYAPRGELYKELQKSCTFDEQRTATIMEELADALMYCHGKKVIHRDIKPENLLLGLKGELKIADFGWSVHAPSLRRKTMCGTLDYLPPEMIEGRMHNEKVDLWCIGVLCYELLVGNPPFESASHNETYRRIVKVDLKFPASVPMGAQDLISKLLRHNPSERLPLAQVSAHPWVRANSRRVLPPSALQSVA

IC50 (Aurora kinase B): < 3 nM
Compound: O=C(Nc1c[nH]nc1-c1nc2cc(CN3CCOCC3)ccc2[nH]1)NC1CC1 [AT-9283]

Ki (Aurora kinase C): 17 nM
Compound: CCN(CCCOc1ccc2c(Nc3cc(CC(=O)Nc4cccc(F)c4)n[nH]3)ncnc2c1)CCOP(=O)(O)O [BARASERTIB]

IC50 (Aurora kinase B): 35 nM
IC50 [1]: 390 nM
Compound: CCc1cccc(CC)c1NC(=O)N1Cc2n[nH]c(NC(=O)c3ccc(N4CCN(C)CC4)cc3)c2C1 [PHA-680632]

half-life [2]: 15 h
Cmax [3]: 650 nM
Compound: Cc1cc(Nc2cc(N3CCN(C)CC3)nc(Sc3ccc(NC(=O)C4CC4)cc3)n2)[nH]n1 [TOZASERTIB]

— ChEMBL document CHEMBL5715939, “Aurora kinase inhibitors: a new class of targeted drugs in cancer” (Clin Lung Cancer, 2006)
